According to article PMC3198688, “Design and development of a peptide-based adiponectin receptor agonist for cancer treatment” (BMC Biotechnology, 2011):
Where two headings read alike, the source gives them in different places. Square brackets hold non-standard residues; d marks the D form. Peptide text beside a SMILES is read from it. Nva = CCC[C@H](N)C(=O)O

How the values were obtained:
[1] = system: MCF-7 breast cancer cells; assay: Growth inhibition (cytostatic) screening in MCF-7 cells; format: cell-based, human
Description: Biological activity of the peptides was first assessed using MCF-7 breast cancer cells that are known to express AdipoR1 [38]. MCF-7 cell line was obtained from ATCC (Manassas, VA) and routinely grown in DMEM:F12 plus 5% calf serum (Cellgro Mediatech, Manassas, VA) at 37°C, 5% CO2. For screening experiments, MCF-7 cells were plated in 24-well plates at the concentration of 30,000 cells/well. After 12 h of culture in the growth medium, the cells were synchronized in serum-free medium (SFM) (DMEM:F12 supplemented with […] bovine serum albumin, 1 mM FeSO4 and 2 mM L-glutamine) for 24 h, and then shifted back to the full growth medium containing either gAd (Phoenix Secretomics, Burlingame, CA) at 50 ng/mL, individual peptides, or no test compounds. After 24 h, the cells were counted under the microscope with trypan-blue exclusion. Each experiment was performed in triplicate and repeated at least three times.
The effects of the lead active peptide 355 ([…]) on cell proliferation were tested in breast cancer cell lines (MCF-7, MDA-MB-231) and in glioblastoma cells (LN18), all obtained from ATCC and routinely cultured as described previously. The peptide was tested at 10 pM-100 μM concentrations under conditions described above under peptide screening.

[2] = Peptide stability in whole mouse blood; format: in vitro ADME
Description: Sixty μg of ADP 355 were dissolved in 100 μL water, and 10 μL aliquots were mixed with 100 μL of freshly drawn mouse blood. After 30 min of incubation at 37°C, blood cells were centrifuged at 10,000 × g. Fifty μL serum was mixed with 50 μL phosphate buffered saline pH 6.8 (PBS), and serum proteins were precipitated by addition of 45 μL aqueous 15% trichloroacetic acid (TCA) for 10 min at 4°C. After centrifugation at 12,000 × g, the supernatant was neutralized with 0.1 M aqueous sodium hydroxide and 0.5 μL of this solution was mixed with 0.5 μL α-cyano-4-hydroxycinnamic acid (4 mg/mL in 60% aqueous acetonitrile containing 0.1% TFA) as matrix on a sample plate. Analysis was performed using a MALDI time-of-flight tandem mass spectrometer (MALDI-TOF/TOF-MS, 4700 proteomic analyzer, Applied Biosystems, Weiterstadt, Germany). Additionally, the neutralized supernatant was loaded on a Jupiter C18 RP-HPLC column (4.6 mm internal diameter, 150 mm length, 5 μm particle size, 30 nm pore size) previously calibrated with known amounts of ADP 355 dissolved in PBS. Absorbance was measured at 214 nm.

[3] = In vivo toxicity in CBA/J mice; conditions: for Kidney weight / Liver weight / Spleen weight: CBA/J mice, day 5
Description: On day 5, the mice were sacrificed by CO2 inhalation. The potential peptide elimination organs: the livers, spleens and kidneys were removed and weighed.

[4] = molecular target: T1, AdipoR1 extracellular loops (Homo sapiens, UniProt Q96A54); assay: Screening of AdipoR1/peptide binding (ELISA plate, biotin-labeled loop peptides); conditions: preliminary, qualitative study; biotin-labeled loop fragments; data not shown
T1 construct: biotin-labeled linear synthetic models of the 4 extracellular loops of AdipoR1; made in house; host or cells: chemical solid-phase peptide synthesis (Fmoc), no expression host
Text: (§1) The 66 unmodified adiponectin array peptides were individually dried down to wells of an ELISA plate, and tested for binding to biotin-labeled linear synthetic models of the 4 extracellular loops of AdipoR1. The receptor/peptide interaction was detected by horseradish-peroxidase conjugated streptavidin.

[5] = system: AdipoR1 extracellular loops; assay: as above; conditions: preliminary, qualitative study; biotin-labeled loop fragments; data not shown
Text: as §1

Row | binding to the other extracellular loops of AdipoR1 [5] | SMILES | biological activity in cell growth inhibition assays [1] | biological activity in cell growth inhibition assays ([1]; listed as fragment 157-162) | stability in whole mouse blood after 30 min ([2]; freshly drawn whole mouse blood, 37°C, 30 min, 10 μL of 60 μg/100 μL peptide in 100 μL blood, TCA precipitation, MALDI-TOF/TOF-MS and C18 RP-HPLC (214 nm)) | stability in mouse blood or serum ([2]; mouse blood or serum, 37°C (abstract)) | Kidney weight ([3]; 5 mg/kg bolus ip) [g] | Liver weight ([3]; 5 mg/kg bolus ip) [g] | Spleen weight ([3]; 5 mg/kg bolus ip) [g] | Kidney weight ([3]; 10 mg/kg bolus ip) [g] | Liver weight ([3]; 10 mg/kg bolus ip) [g] | Spleen weight ([3]; 10 mg/kg bolus ip) [g] | Kidney weight ([3]; 25 mg/kg bolus ip) [g] | Liver weight ([3]; 25 mg/kg bolus ip) [g] | Spleen weight ([3]; 25 mg/kg bolus ip) [g] | Kidney weight ([3]; 50 mg/kg bolus ip) [g] | Liver weight ([3]; 50 mg/kg bolus ip) [g] | Spleen weight ([3]; 50 mg/kg bolus ip) [g] | signs of systemic toxicity (tremor, head tilt, reduced activity and squinting) ([3]; healthy CBA/J mice, bolus ip up to 50 mg/kg, observed for 4 days) | binding to the first extracellular loop of AdipoR1 [4]
1 | – | CC(C)C[C@H](NC(=O)CNC(=O)[C@@H]1CCCN1)C(=O)N[C@@H](Cc1ccc(O)cc1)C(=O)N[C@@H](Cc1ccc(O)cc1)C(=O)N[C@@H](Cc1ccccc1)C(N)=O [Middle 6 of 25, H-Pro-Gly-Leu-Tyr-Tyr-Phe -NH2] (H-PGLYYF-NH2) | inactive | did not exhibit any biological activity | – | – | – | – | – | – | – | – | – | – | – | – | – | – | – | –
2 | – | CCC[C@H](NC(=O)[C@@H]1CCCN1C(=O)[C@@H](NC(=O)[C@H](N)CC(N)=O)[C@@H](C)CC)C(=O)N[C@@H](CC(C)C)C(=O)N[C@@H](Cc1ccc(O)cc1)C(=O)N[C@H](CO)C(=O)N[C@@H](Cc1ccccc1)C(=O)N[C@@H](C)C(=O)N[C@H](CO)C(N)=O [ADP 355, H-DAsn-Ile-Pro-Nva-Leu-Tyr-DSer-Phe-Ala-DSer-NH2] (H-[dN]IP[Nva]LY[dS]FA[dS]-NH2) | – | – | without noticeable degradation | at least 30 min | 0.30 | 1.02 | 0.07 | 0.29 | 1.09 | 0.06 | 0.35 | 1.24 | 0.07 | 0.31 | 1.07 | 0.07 | no signs of systemic toxicity | –
3 | not other loops | CC[C@H](C)[C@H](NC(=O)[C@@H](N)CC(N)=O)C(=O)N1CCC[C@H]1C(=O)NCC(=O)N[C@@H](CC(C)C)C(=O)N[C@@H](Cc1ccc(O)cc1)C(=O)N[C@@H](Cc1ccc(O)cc1)C(=O)N[C@@H](Cc1ccccc1)C(=O)N[C@@H](C)C(=O)N[C@@H](Cc1ccc(O)cc1)C(N)=O [ADP 25, H-Asn-Ile-Pro-Gly-Leu-Tyr-Tyr-Phe-Ala-Tyr-NH2] (H-NIPGLYYFAY-NH2) | fully active | – | – | – | – | – | – | – | – | – | – | – | – | – | – | – | – | bound the first extracellular loop of AdipoR1
